Values quoted from earlier work in US9198881B2, “Equine nutritional supplement” (priority 2011, dated 2015).
Read-outs that look alike come from different tables or passages of the source.

Test system: nitric oxide
Settings: humans, 8 weeks of supervised aerobic training, FIGS. 4 and 5

In the case of “Glycine Propionyl L-Carnitine Hydrochloride”, the nitric oxide levels (1.5 grams per day) is given as “statistically significant enhancement” and the nitric oxide levels (4.5 grams per day) is given as “statistically significant enhancement”.
